Source: US12263140B1, “Methods of reducing the production of greenhouse gases from animals” (AGRICULTURAL SCIENCES LIMITED, priority 2023, dated 2025)

How the values were obtained:
Type in all cases: in vivo
[1] = system: sheep; assay: Metabolic chamber trial of sheep drenched with vitamin K3
Description: Six one year old self shedding wether Wiltshire sheep were ranked by body weight and divided in to three strata or blocks. Block one contained the lightest sheep. Block 2 the mid-sized sheep, and Block 3 the heaviest sheep. Each of the sheep in each block was assigned at random to either be a control or experimental (dosed) individual.
The control group were not dosed at all.
Testing was completed at dosing and after 24 hours of methane emissions using a metabolic chamber. • The metabolic chamber used was made of sealed panel. All joints were made gas tight by sealing compounds, and the doors and hatches were made gas tight by rubber seals. The gas-tight metabolic chamber had viewing windows on one side, the top, and the exit door. Sheep entered after being weighed through an entrance door at one end. All doors and hatches were sealed by pull-down latches. • Air was introduced into the chamber by a 25 mm pipe assembly with the intake located in a pure air space area outside the work and animal holding areas. The air was propelled into the chamber by an electric impeller. The flow rate was set at 5 m·s^−1. Air inside the chamber was mixed by carefully placed baffles and an electric impeller to ensure even composition even when the animal burped out methane periodically.
When a sheep was introduced into the chamber it generally took between 2 and 3 minutes before the gas composition equilibrated and stayed constant. Readings were taken for few minutes once the gas levels had stabilised.
The dosing compound used as noted above, was human grade synthetic vitamin K3. This was dosed to the sheep as an aqueous oral fed drench.
A longer trial to the above was then completed with the same sheep.
Methane, carbon dioxide, volatile organic carbon (VOC) gas emissions and weight gain were measured at intervals during the trial time period of 241.2 hours.
Between being brought in for weighing and measuring, the sheep were allowed to graze normally on a grass field.

[2] = system: sheep; assay: Sheep weight gain trial, vitamin K3 in drinking water, 22 days
Excerpt: A trial was completed using three randomly selected Wiltshire hogget wether sheep as the test subjects chosen from a wider group of sheep.
The test subject sheep were allowed access to the dosed water for a total of 5 days, after which the confinement was removed and the test subject and un-dosed control sheep mixed in the same field. From day 6 the test sheep grazed the wider field and received only un-dosed tap water, identical to the control sheep (see below).
The remaining wider group of sheep post removal of the three test subject sheep became the control sheep which were contained in a wider part of the same field as the test subject sheep for the first five days and then mixed with the test subject sheep after five days as noted above. The control sheep had access ad libitum to un-dosed tap water during the first five days of the trial and, as noted, the test sheep and control sheep both had access to the same tap water source ad libitum post the initial five days and to the trial end.
To account for this, two mature ewes from a neighbouring property (“naïve” sheep controls) were introduced to graze in the same field as the control sheep (and post day 5, the control and test sheep). The naïve sheep also had ad libitum access to un-dosed tap water for the duration of the trial. It was envisaged that the naïve sheep would re-infect the control and test sheep with methanogens once in the same field.
The sheep from each group were weighed at the start of the trial and after 22 days had concluded. The weight gain (or loss) was then calculated being the difference between the 22 day weight and that measured at the trial start.

[3] = system: sheep; assay: Sheep methane output trial, vitamin K3 in drinking water; conditions: approximately 2 g per 20 litres drinking water; 48 h to 148 h, FIG. 21
Description: A trial was completed using Wiltshire hogget wether sheep.
The test sheep were able to drink further dosed water ad libitum while control sheep only had ad libitum access to tap water (un-dosed). Methane emitted by the test and control sheep was collected and emissions measured at intervals (48 h, 96 h, 120 h, 148 h).

[4] = system: sheep; assay: TVOC and HCHO in exhalant breath of sheep dosed with vitamin K3 (skatole proxy)
Description: A trial was completed comparing the breath of test subject sheep dosed with vitamin K3 versus that of un-dosed sheep.
Total volatile organic compounds were measured in the exhalant breath of sheep. Two measurements were made being: • TVOC (Total Volatile Organic Compounds); and • HCHO (formaldehyde or equivalents).

[5] = system: sheep; assay: CO2 in exhalant of sheep dosed with vitamin K3 in drinking water; conditions: FIG. 24
[6] = system: sheep; assay: Metabolic chamber trial of sheep drenched with vitamin K3; conditions: Example 15 text; stated to be based on earlier experiments using the Douglas Bag technique
[7] = Controls group: un-dosed water in trial, but dosed with vitamin K3 around two months before
[8] = Dosed group: 1.87 g in 20 litres drinking water, access for 5 days

## CC1=CC(=O)c2ccccc2C1=O [vitamin K3]
[1]; Example 14, 24 hours post dosing
  methane in one trial sheep: no detectable trace of methane
[1]; Example 14, single drench 75 mg (76 mg) in 15 ml water, dosing to 24 hours
  average reduction in methane emissions versus control sheep: 96.4%
[1]; Example 15
  distress during the trial: showed no distress
  greatest reduction of methane emissions in any sheep: 100%
  lowest value of the emission of methane from any sheep on any occasion: zero
[1]; Example 15, FIG. 18, metabolic chamber, from 1271 ppm
  CO2 concentration after dosing, before subtracting air baseline: 610 ppm
[1]; Example 15, FIG. 19, R2=0.781
  slope of best fit linear equation of mean body weight against HOURS: 2.18E-01
[1]; Example 15, FIG. 20
  total VOC in exhalant breath: decreased over time
[1]; Example 15, single drench 75 mg in 15 ml water, 241.2 hours trial
  average reduction in methane emissions: 80.5%
[1]; Example 15, whole trial duration, no extra dosing
  duration of the reduction in methane emissions after the single dose: 241.2 h
[2]; [7]
  Daily weight gain: 0.064
  Wt. Gain (kg) after 22 days: 1.400 kg
[2]; [8]
  Daily weight gain: 0.238
  Wt. Gain (kg) after 22 days: 5.233 kg
[3]
  methane emissions levels lower than control sheep: 3-4 times
[4]; FIG. 22
  TVOC in breath, less than in un-dosed sheep: 4-5 times
[4]; inventor's observations, dosed sheep thrived
  impact on favourable indole compounds: no negative impact
[5]
  CO2 volume produced, less than control sheep: 3 ×
[6]
  average reduction in carbon dioxide emissions: 92%

## vitamin K
[1]; Example 15
  animal growth rate: increase in animal growth rate
[2]; 22 days
  weight gain of control group (dosed two months earlier) relative to naïve sheep: 4-5 ×
